# Entries after “also recorded” stand apart in the source; their conditions may differ. Like-named read-outs stand apart in the source and are kept apart here.
# T1: CntA (Acinetobacter baumannii, UniProt D0C9N6)
# T1 construct: made in house; host or cells: Escherichia coli BL21(DE3)pLysS
# T1 sequence (D0C9N6 1-371): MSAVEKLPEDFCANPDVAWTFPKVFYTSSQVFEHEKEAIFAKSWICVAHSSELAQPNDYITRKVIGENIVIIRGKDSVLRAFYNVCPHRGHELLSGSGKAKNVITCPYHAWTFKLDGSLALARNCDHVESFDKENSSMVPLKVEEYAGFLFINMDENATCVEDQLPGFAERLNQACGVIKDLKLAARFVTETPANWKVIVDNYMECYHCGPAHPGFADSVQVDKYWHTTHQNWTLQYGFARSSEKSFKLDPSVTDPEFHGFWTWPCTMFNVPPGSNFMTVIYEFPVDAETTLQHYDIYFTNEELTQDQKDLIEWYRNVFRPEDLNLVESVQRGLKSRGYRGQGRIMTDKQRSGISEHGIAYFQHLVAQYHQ
# Assays:
# CutC = test system: CutC; set-up: method as in PMID 30082863; details: irreversible covalent bond in the CutC catalytic site; cited from earlier work
# [1] = test system: TMA production in A. baumannii cells; assay: Evaluation of inhibitors in A. baumannii cell culture (TMA production from carnitine); type: cell-based, Acinetobacter baumannii; details: inhibitor 200 μM; carnitine 1 mM; 37 °C, 1 h; N = 3
# Description: A. baumannii cells were cultured overnight in the M9 minimal media at 37 °C with 10 mM L-carnitine as the sole carbon source. The cells were then collected by centrifugation and washed twice in a buffer containing 10 mM Hepes, 1 mM NaCl (pH 7.6). After wash, the cells were resuspended in the same buffer to a density of OD600 of 0.4. […]. These cells with appropriate treatments were incubated at 37 °C for 1 h. The supernatant was then obtained by filtering through a 0.2-μm filter and analyzed by ion chromatography by quantifying TMA production and carnitine degradation as described previously ([13]).
# CntA [2] = target: T1, CntA; assay: Inhibitory IC50 determination against CntA (UV-visible enzyme assay); type: biochemical
# Description: (§1) All activity assays were performed on a BMG FLOUstar Omega 96-well plate reader, set at wavelength 340 nm with a sample volume of 200 μl. The assay comprised combining mixture A 60 μg CntA and 60 μg CntB with mixture B 0.25 mM L-carnitine and 0.25 mM NADH in a 10 mM Hepes buffer, pH 7.6 with 250 mM NaCl and 0.5 mM TCEP. […] The reactions were measured for 5 min recording the linear decrease of signal at 340 nm for NADH oxidation. The slope of the line was measured between 60 and 120 s to yield the rate.
# Compounds in the Pathogen Box (https://www.mmv.org/mmv-open/pathogen-box/about-pathogen-box) were received as 10 mM stocks dissolved in dimethylsulfoxide (DMSO). The compounds were added such that the final concentration was 50 μM in the 200-μl reaction. As per the “UV-visible enzyme assays” methodology above, the protein in mixture A was incubated with inhibitor compounds for 20 min before commencing the assay.
# […]. For each concentration, four replicates were carried out. IC50 values were determined using a built-in “Dose Response Inhibition” – [Inhibitor] versus response model in Prism 8 for macOS v8.2.0.
# CntA [3] = target: T1, CntA; assay: Substrate profiling of carnitine analogs with CntA (structure–activity relationship); type: biochemical; details: substrate analogs tested as CntA substrates
# Description: as §1
# [4] = substrate: C[N+](C)(C)CC(O)CC(=O)[O-]; assay: Michaelis–Menten kinetics of CntA (UV-visible NADH oxidation assay); type: biochemical, Acinetobacter baumannii; details: other: substrate of CntA; n = 4; pH 7.6
# Description: as §1
# (§2) Michaelis–Menten kinetic parameters were derived using the UV-visible enzyme assays methodology above. Substrate concentrations were varied from a top concentration of 2 mM and decreasing in a twofold manner for 10 successive dilutions. Observed rates were obtained from four independent measurements and fitted to a nonlinear regression Michaelis–Menten model in Prism 8 for macOS v8.2.0.
# [5] = substrate: C[N+](C)(C)CCCC(=O)[O-]; assay: as above; type: biochemical, Acinetobacter baumannii; details: other: substrate of CntA; n = 4; pH 7.6
# Description: as §1, §2
# [6] = substrate: CCCC[N+](C)(C)C; assay: as above; type: biochemical, Acinetobacter baumannii; details: other: substrate of CntA; n = 4; pH 7.6
# Description: as §1, §2
# [7] = substrate: C[N+](C)(C)NCCC(=O)[O-]; assay: as above; type: biochemical, Acinetobacter baumannii; details: other: substrate of CntA; n = 4; pH 7.6
# Description: as §1, §2
molecule,measurement,setting,value
"C[N+](C)(CF)CCO [FMC, N-(fluoromethyl)-2-hydroxy-N,N-dimethylethan-1-aminium]",EC50,CutC,56 nM
"c1csc(-c2cnc3sc(NCC4CCOCC4)nn23)c1 [MMV1, N-[(oxan-4-yl)methyl]-5-(thiophen-2-yl)imidazo[2,1-b][1,3,4]thiadiazol-2-amine]",Effect on TMA formation from carnitine in A. baumannii culture,[1],did not reduce TMA production; also recorded: did not inhibit TMA formation
same,IC50,CntA [2],5.8 µM
"Brc1cncc(-c2cc(NCCCn3ccnc3)nc(-c3ccccc3)n2)c1 [MMV3, 6-(5-bromopyridin-3-yl)-N-[3-(1H-imidazol-1-yl)propyl]-2-phenylpyrimidin-4-amine]",Effect on TMA formation from carnitine in A. baumannii culture,[1],significant reduction; also recorded: almost completely inhibited TMA formation
same,IC50,CntA [2],1.1 µM
"N#CS [SCN, thiocyanate]",IC50,"CntA [2]; dose response, N=3, read-out: IC50 (inhibition of CntA activity)",35000 µM
"C[N+](C)(C)CC(O)CC(=O)[O-] (centres unmarked) [compound 1, Carnitine]",Oxidation by CntA (activity as substrate),CntA [3],oxidizing
"C[N+](C)(C)CCCC(=O)[O-] [compound 2, γ-butyrobetaine]",Oxidation by CntA (activity as substrate),CntA [3],oxidizing
"C[N+](C)(C)NCCC(=O)[O-] [compound 3, Meldonium]",Oxidation by CntA (activity as substrate),CntA [3],can also oxidize
"CCCC[N+](C)(C)C [compound 4, (1-Butyl)Trimethylammonium]",Oxidation by CntA (activity as substrate),CntA [3],can also oxidize
"CntA (Acinetobacter baumannii ATCC 19606 = CIP 70.34 = JCM 6841) (protein, made in house; host or cells: Escherichia coli BL21(DE3)pLysS) MSAVEKLPEDFCANPDVAWTFPKVFYTSSQVFEHEKEAIFAKSWICVAHSSELAQPNDYITRKVIGENIVIIRGKDSVLRAFYNVCPHRGHELLSGSGKAKNVITCPYHAWTFKLDGSLALARNCDHVESFDKENSSMVPLKVEEYAGFLFINMDENATCVEDQLPGFAERLNQACGVIKDLKLAARFVTETPANWKVIVDNYMECYHCGPAHPGFADSVQVDKYWHTTHQNWTLQYGFARSSEKSFKLDPSVTDPEFHGFWTWPCTMFNVPPGSNFMTVIYEFPVDAETTLQHYDIYFTNEELTQDQKDLIEWYRNVFRPEDLNLVESVQRGLKSRGYRGQGRIMTDKQRSGISEHGIAYFQHLVAQYHQ",Vmax,[4],59.0 (± 3.1) nmol/min/mg
same,Vmax,[5],76.06 (± 1.6) nmol/min/mg
same,Vmax,[6],30.1 (± 3.4) nmol/min/mg
same,Vmax,[7],43.8 (± 1.4) nmol/min/mg

# Reference: publication PMC7948474, “Structural basis of carnitine monooxygenase CntA substrate specificity, inhibition, and intersubunit electron transfer” (The Journal of Biological Chemistry, 2020)
